In patent US12152031B2, “Biodefense agents” (priority 2018, dated 2024):
In brackets after ≈: the same amount, converted by molar mass.

Assays:
Format in all cases: cell-based
Burkholderia mallei = experiment: microbe, parasite or virus in culture; details: for MIC: read-out: MIC range
[1] = system: Burkholderia pseudomallei; experiment: microbe, parasite or virus in culture; details: for MIC50 / MIC90 / MIC: Burkholderia pseudomallei; for MIC: read-out: MIC range
Enterobacteriaceae = system: Enterobacteriaceae
E. coli DH10B = experiment: microbe, parasite or virus in culture; details: Escherichia coli
[2] = system: E. coli DH10B mcr-1 transformant; experiment: microbe, parasite or virus in culture; details: Escherichia coli
P. aeruginosa = experiment: microbe, parasite or virus in culture; details: Pseudomonas aeruginosa, read-out: MICs
Francisella tularensis = experiment: microbe, parasite or virus in culture; details: for MIC: read-out: MIC range
Yersinia pestis = experiment: microbe, parasite or virus in culture; details: for MIC: read-out: MIC range
Bacillus anthracis = experiment: microbe, parasite or virus in culture; details: for MIC: read-out: MIC range

SMILES	MIC50 (Burkholderia mallei)	MIC90 (Burkholderia mallei)	MIC (Burkholderia mallei)	MIC range [1]	MIC50 [1]	MIC90 [1]	peak of unimodal MIC distribution (Enterobacteriaceae)	MIC (E. coli DH10B)	MIC [2]	MIC (P. aeruginosa)	MIC50 (Francisella tularensis)	MIC90 (Francisella tularensis)	MIC (Francisella tularensis)	MIC [1]	MIC50 (Yersinia pestis)	MIC90 (Yersinia pestis)	MIC (Yersinia pestis)	MIC50 (Bacillus anthracis)	MIC90 (Bacillus anthracis)	MIC (Bacillus anthracis)
CC[C@H]1OC(=O)[C@H](C)[C@@H](O[C@H]2C[C@@](C)(OC)[C@@H](O)[C@H](C)O2)[C@H](C)[C@@H](O[C@@H]2O[C@H](C)C[C@H](N(C)C)[C@H]2O)[C@](C)(O)C[C@@H](C)CN(C)[C@H](C)[C@@H](O)[C@]1(C)O [Azithromycin, azithromycin, reference compound]	0.5 µg/mL (≈ 0.668 µM)	1 µg/mL (≈ 1.34 µM)	0.06 to 1 µg/mL (≈ 0.0801 to 1.34 µM)																	
CC(C)(O/N=C(\C(=O)N[C@@H]1C(=O)N2C(C(=O)[O-])=C(C[n+]3ccccc3)CS[C@H]12)c1csc(N)n1)C(=O)O [Ceftazidime, ceftazidime, reference compound]				≤0.03 to 32 µg/mL	1 µg/mL (≈ 1.83 µM)	1 µg/mL (≈ 1.83 µM)														
CSc1cc(-n2cc3cc(-c4cc(CCC[C@@H](N)C5CC5)cc(Cl)c4F)[nH]c3nc2=O)ccc1[C@@H]1CCC[C@@H](CCNC(C)=N)N1 [RX-04B, N-(2-((2S,6S)-6-(4-(6-(5-((R)-4-amino-4-cyclopropylbutyl)-3-chloro-2-fluorophenyl)-2-oxo-2,7-dihydro-3H-pyrrolo[2,3-d]pyrimidin-3-yl)-2-(methylthio)phenyl)piperidin-2-yl)ethyl)acetimidamide]							1 µg/mL	0.5 µg/mL (≈ 0.753 µM)	0.5 µg/mL (≈ 0.753 µM)											
CC(=N)NCC[C@@H]1CCC[C@@H](c2ccc(-n3cc4cc(-c5cc(CCC[C@@H](N)CO)cc(Cl)c5F)[nH]c4nc3=O)cc2F)N1 [RX-04C, N-(2-((2S,6S)-6-(4-(6-(5-((R)-4-amino-5-hydroxypentyl)-3-chloro-2-fluorophenyl)-2-oxo-2,7-dihydro-3H-pyrrolo[2,3-d]pyrimidin-3-yl)-2-fluorophenyl)piperidin-2-yl)ethyl)acetimidamide]							2 µg/mL	0.5 µg/mL (≈ 0.799 µM)	0.5 µg/mL (≈ 0.799 µM)	≥ 16 µg/mL										
CSc1cc(-n2cc3cc(-c4cc(CCC[C@@H](N)C5CC5)cc(Cl)c4F)[nH]c3nc2=O)ccc1[C@@H]1CCC[C@@H](CCNC(C)=N)N1 [RX-D1]	0.12 µg/mL (≈ 0.181 µM)	0.12 µg/mL (≈ 0.181 µM)	0.06 to 0.25 µg/mL (≈ 0.0903 to 0.376 µM)		1 µg/mL (≈ 1.51 µM)	4 µg/mL (≈ 6.02 µM)					0.12 µg/mL (≈ 0.181 µM)	0.25 µg/mL (≈ 0.376 µM)	0.06 to 0.5 µg/mL (≈ 0.0903 to 0.753 µM)	0.5 to 4 µg/mL (≈ 0.753 to 6.02 µM)	0.12 µg/mL (≈ 0.181 µM)	0.25 µg/mL (≈ 0.376 µM)	0.008 to 0.25 µg/mL (≈ 0.012 to 0.376 µM)	0.06 µg/mL (≈ 0.0903 µM)	0.06 µg/mL (≈ 0.0903 µM)	0.008 to 0.12 µg/mL (≈ 0.012 to 0.181 µM)
CC(=N)NCC[C@@H]1CCC[C@@H](c2ccc(-n3cc4cc(-c5cc(CCC[C@H](C)N)cc(Cl)c5F)[nH]c4nc3=O)cc2)N1CCCO [RX-D2]	0.12 µg/mL (≈ 0.185 µM)	0.25 µg/mL (≈ 0.384 µM)	0.06 to 0.5 µg/mL (≈ 0.0923 to 0.769 µM)		> 8 µg/mL	> 8 µg/mL					0.12 µg/mL (≈ 0.185 µM)	0.25 µg/mL (≈ 0.384 µM)	0.015 to 1 µg/mL (≈ 0.0231 to 1.54 µM)		0.25 µg/mL (≈ 0.384 µM)	1 µg/mL (≈ 1.54 µM)	0.03 to 1 µg/mL (≈ 0.0461 to 1.54 µM)	0.06 µg/mL (≈ 0.0923 µM)	0.12 µg/mL (≈ 0.185 µM)	0.03 to 0.12 µg/mL (≈ 0.0461 to 0.185 µM)
CC(=N)NCC[C@@H]1CCC[C@@H](c2ccc(-n3cc4cc(-c5cc(CCC[C@H](C)N)cc(Cl)c5F)[nH]c4nc3=O)cc2)N1CCCF [RX-D3]	0.12 µg/mL (≈ 0.184 µM)	0.25 µg/mL (≈ 0.383 µM)	0.03 to 0.25 µg/mL (≈ 0.046 to 0.383 µM)		2 µg/mL (≈ 3.07 µM)	4 µg/mL (≈ 6.13 µM)					0.12 µg/mL (≈ 0.184 µM)	0.25 µg/mL (≈ 0.383 µM)	0.015 to 2 µg/mL (≈ 0.023 to 3.07 µM)	0.5 to 8 µg/mL (≈ 0.767 to 12.3 µM)	0.12 µg/mL (≈ 0.184 µM)	0.25 µg/mL (≈ 0.383 µM)	0.06 to 0.5 µg/mL (≈ 0.092 to 0.767 µM)	0.12 µg/mL (≈ 0.184 µM)	0.12 µg/mL (≈ 0.184 µM)	0.03 to 0.25 µg/mL (≈ 0.046 to 0.383 µM)
C[C@H](N)CCCc1cc(Cl)c(F)c(-c2cc3cn(-c4ccc([C@@H]5CCC[C@@H](CCSC(=N)N)N5)cc4)c(=O)nc3[nH]2)c1 [RX-D4]	0.12 µg/mL (≈ 0.197 µM)	0.12 µg/mL (≈ 0.197 µM)	0.03 to 0.12 µg/mL (≈ 0.0492 to 0.197 µM)		1 µg/mL (≈ 1.64 µM)	4 µg/mL (≈ 6.56 µM)					0.03 µg/mL (≈ 0.0492 µM)	0.06 µg/mL (≈ 0.0983 µM)	0.004 to 0.5 µg/mL (≈ 0.00656 to 0.819 µM)	0.25 to 8 µg/mL (≈ 0.41 to 13.1 µM)	0.12 µg/mL (≈ 0.197 µM)	0.25 µg/mL (≈ 0.41 µM)	0.004 to 0.5 µg/mL (≈ 0.00656 to 0.819 µM)	0.06 µg/mL (≈ 0.0983 µM)	0.12 µg/mL (≈ 0.197 µM)	0.015 to 0.12 µg/mL (≈ 0.0246 to 0.197 µM)
